# Measured values reported in patent US11427553B2, “Dihydrooxadiazinones” (Bayer Aktiengesellschaft, priority 2017, dated 2022).
# pIC50: −log10 of the molar value.
# How the values were obtained:
# HeLa cells = experiment: Assay 1 cell proliferation measurement (CTG, 72 h), HeLa; type: cell-based, human; conditions: Homo sapiens, HeLa; Assay 1, 72 h, Cell Titer Glo; read-out: HeLa IC50 [nM] (Cervical cancer)
# Description: (§1) Cell Proliferation Measurement
# (§2) The antiproliferative activity of the compounds of the general formula (I) was examined in vitro in human cancer cells. For this purpose, the appropriate number of cells (Hela: 800; SK-MEL-3: 1000; A549: 800) were plated in 384-well plates with appropriate growth medium ((A549: DMEM/Ham's F12 (Biochrom; #FG 4815 with stabile Glutamine), FCS 10% final (Biochrom; #S 0415); Hela: DMEM/Ham's F12 (Biochrom; #FG 4815 with stabile Glutamine), FCS 10% final (Biochrom; #S 0415); SK-MEL-3: McCoy's 5A (Biochrom; #F 1015), FCS 10% final (Biochrom; #S 0415), L-Alanyl-L-Glutamine final: 2 mM, (Biochrom; #K 0302)) and incubated at 37° C. overnight. After 24 h, cells on one plate (0 h plate) were treated with 30 μl/cavity of CTG solution (Promega Cell Titer Glo (catalogue #G755B and G756B)) and incubated at room temperature for 10 min, and luminescence was measured by means of a VICTOR V (Perkin Elmer), in order to determine cell viability on commencement of treatment. The cells on the test plate were treated with the compounds of the general formula (I) as and incubated at 37° C. for 72 h. The compounds were added to the cells by means of an HP D300 digital dispenser in a 10-step 2.5-fold dilution series generally starting at a maximum final drug concentration of 100 nM. As control, the cells were treated with vehicle (DMSO at 0.3% final concentration). After 72 h, the cells were treated with 30 μl/cavity of CTG solution (Promega Cell Titer Glo (catalogue #G755B and G756B)) and incubated at room temperature for 10 min. and luminescence was measured by means of a VICTOR V (Perkin Elmer), in order to determine cell viability at the end of treatment. The percentage effect on cell growth and the IC50 derived therefrom were determined for each test substance using the values from the 0 h plate […] and the DMSO control […]. The IC50 values were calculated using a 4-parameter fit.
# SK-MEL-3 cells = experiment: Assay 1 cell proliferation measurement (CTG, 72 h), SK-MEL-3; type: cell-based, human; conditions: Homo sapiens, SK-MEL3; Assay 1, 72 h, Cell Titer Glo; read-out: SK-MEL-3 IC50 [nM] (melanoma)
# Description: as §1, §2
# human full length PDE3A = human full length PDE3A (Homo sapiens (Human), UniProt Q14432); experiment: Assay 4 PDE3A enzyme inhibition (3H-cAMP SPA); type: biochemical; conditions: Sf9 cell extract
# human full length PDE3A, sequence (Q14432 whole entry): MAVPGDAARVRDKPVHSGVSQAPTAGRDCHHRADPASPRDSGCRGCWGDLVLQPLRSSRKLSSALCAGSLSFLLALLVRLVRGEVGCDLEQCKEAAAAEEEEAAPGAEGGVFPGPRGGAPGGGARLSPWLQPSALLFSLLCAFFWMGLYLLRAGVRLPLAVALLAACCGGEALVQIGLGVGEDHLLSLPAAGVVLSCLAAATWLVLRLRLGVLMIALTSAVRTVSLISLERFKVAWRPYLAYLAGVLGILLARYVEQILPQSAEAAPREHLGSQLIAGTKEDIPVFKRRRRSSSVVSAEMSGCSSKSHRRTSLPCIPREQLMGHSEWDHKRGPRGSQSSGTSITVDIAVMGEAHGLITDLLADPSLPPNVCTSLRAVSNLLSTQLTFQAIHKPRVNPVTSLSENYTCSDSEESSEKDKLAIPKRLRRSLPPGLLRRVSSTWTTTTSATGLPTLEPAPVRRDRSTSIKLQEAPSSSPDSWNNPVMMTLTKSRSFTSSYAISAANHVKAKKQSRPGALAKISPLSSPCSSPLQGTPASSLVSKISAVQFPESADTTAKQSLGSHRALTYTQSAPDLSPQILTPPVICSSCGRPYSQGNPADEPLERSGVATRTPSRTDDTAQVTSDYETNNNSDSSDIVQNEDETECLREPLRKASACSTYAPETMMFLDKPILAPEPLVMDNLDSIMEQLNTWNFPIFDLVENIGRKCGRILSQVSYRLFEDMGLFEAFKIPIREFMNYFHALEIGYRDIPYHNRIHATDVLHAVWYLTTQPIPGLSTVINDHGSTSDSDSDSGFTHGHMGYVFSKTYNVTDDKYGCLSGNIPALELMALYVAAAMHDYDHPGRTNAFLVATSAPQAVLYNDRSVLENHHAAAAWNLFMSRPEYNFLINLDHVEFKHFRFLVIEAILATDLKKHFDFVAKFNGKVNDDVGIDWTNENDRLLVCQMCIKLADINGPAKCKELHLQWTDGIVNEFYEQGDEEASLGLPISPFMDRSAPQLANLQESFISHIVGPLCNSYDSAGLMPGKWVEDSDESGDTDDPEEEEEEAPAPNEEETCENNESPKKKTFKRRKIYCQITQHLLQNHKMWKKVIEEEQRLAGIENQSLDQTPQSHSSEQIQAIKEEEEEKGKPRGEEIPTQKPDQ
# Description: Assay 4 Method for PDE3A Enzyme Inhibition
# (§3) The commercially available 3H-cAMP Scintillation Proximity Assay (SPA, Perkin Elmer) system was used for enzyme inhibition studies. For the determination of the in vitro effect of example compounds on the PDE3A reactions 2 μl of the respective example compound solution in DMSO (serial dilutions) were placed in wells of microtiter plates (Isoplate-96/200W; Perkin Elmer). 50 μl of a dilution of PDE3A cell extract from Sf9 cells overexpressing human full length PDE3A (SB Drug Discovery, UK) in buffer A (50 mM Tris/HCl pH 7.5, 8.3 mM MgCl2, 1.7 mM EDTA, 0.2% BSA) was added. The dilution of the PDE3A cell extract was chosen such that the reaction kinetics was linear and less than 70% of the substrate was consumed (typical dilution 1:5000). The reaction was started by addition of 50 μl (0.025 μCi) of 1:2000 in buffer A w/o BSA diluted substrate [8-3H]adenosine 3′, 5′-cyclic phosphate (1 μCi/μl; Perkin Elmer). After incubation at room temperature for 60 min, the reaction was stopped by addition of 25 μl of a suspension containing 18 mg/ml yttrium scintillation proximity beads (Perkin Elmer) in water. The microtiter plates were sealed and measured in a Microbeta scintillation counter (PerkinElmer Wallac). IC50 values were determined from sigmoidal curves by plotting percentage PDE3A activity vs log compound concentration.
# human full length PDE3B = human full length PDE3B (Homo sapiens (Human), UniProt Q13370); experiment: Assay 5 PDE3B enzyme inhibition (3H-cAMP SPA); type: biochemical; conditions: Sf9 cell extract
# human full length PDE3B, sequence (Q13370 whole entry): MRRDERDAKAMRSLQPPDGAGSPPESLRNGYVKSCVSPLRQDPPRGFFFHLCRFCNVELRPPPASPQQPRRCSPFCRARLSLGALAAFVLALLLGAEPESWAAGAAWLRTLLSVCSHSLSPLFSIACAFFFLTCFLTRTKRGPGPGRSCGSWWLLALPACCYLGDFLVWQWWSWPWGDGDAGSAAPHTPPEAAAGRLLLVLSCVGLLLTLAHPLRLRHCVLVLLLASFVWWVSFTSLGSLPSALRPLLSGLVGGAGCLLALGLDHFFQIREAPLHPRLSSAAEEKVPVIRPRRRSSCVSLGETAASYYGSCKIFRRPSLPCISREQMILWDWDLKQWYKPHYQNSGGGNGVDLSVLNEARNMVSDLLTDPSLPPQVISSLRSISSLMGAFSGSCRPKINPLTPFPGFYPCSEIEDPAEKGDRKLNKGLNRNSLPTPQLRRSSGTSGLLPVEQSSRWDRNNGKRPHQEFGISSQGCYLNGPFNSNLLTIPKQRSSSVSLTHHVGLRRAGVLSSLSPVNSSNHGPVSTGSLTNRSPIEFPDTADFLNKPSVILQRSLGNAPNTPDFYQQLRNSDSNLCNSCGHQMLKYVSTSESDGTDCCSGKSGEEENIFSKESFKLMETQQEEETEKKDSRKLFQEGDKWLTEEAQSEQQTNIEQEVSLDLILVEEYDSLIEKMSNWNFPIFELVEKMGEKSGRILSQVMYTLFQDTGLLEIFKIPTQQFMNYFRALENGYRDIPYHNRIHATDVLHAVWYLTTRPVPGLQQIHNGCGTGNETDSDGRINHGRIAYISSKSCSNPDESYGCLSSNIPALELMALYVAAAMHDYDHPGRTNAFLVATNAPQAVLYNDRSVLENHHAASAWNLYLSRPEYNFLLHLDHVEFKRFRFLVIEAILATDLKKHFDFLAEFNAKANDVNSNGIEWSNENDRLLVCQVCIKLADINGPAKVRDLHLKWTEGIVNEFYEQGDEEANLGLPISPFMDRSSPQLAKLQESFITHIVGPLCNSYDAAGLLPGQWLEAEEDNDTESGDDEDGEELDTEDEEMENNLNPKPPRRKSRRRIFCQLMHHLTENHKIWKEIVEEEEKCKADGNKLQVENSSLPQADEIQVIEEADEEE
# Description: as §3, with “PDE3B” for “PDE3A”, “1:6000).” for “1:5000).”
Structure (SMILES),IC50 (HeLa cells) [nM],IC50 (SK-MEL-3 cells) [nM],pIC50 (human full length PDE3A),pIC50 (human full length PDE3B)
"O=C1NN=C(c2ccc(NC3CC(O)C3)c(C(F)(F)F)c2)CO1 (mixture of isomers) [Example 206, (cis/trans)-5-[4-{[3-hydroxycyclobutyl]amino}-3-(trifluoromethyl)phenyl]-3,6-dihydro-2H-1,3,4-oxadiazin-2-one]",0.5,1,7.82,7.70
"NC1CCC(Nc2ccc(C3=NNC(=O)OC3)cc2C(F)(F)F)CC1 (mixture of isomers) [Example 320, 5-[4-{[4-aminocyclohexyl]amino}-3-(trifluoromethyl)phenyl]-3,6-dihydro-2H-1,3,4-oxadiazin-2-one (mixture of stereoisomers)]",> 100,> 100,7.12,6.66
"NC1CCCC(Nc2ccc(C3=NNC(=O)OC3)cc2C(F)(F)F)C1 (mixture of isomers) [Example 322, 5-[4-{[3-aminocyclohexyl]amino}-3-(trifluoromethyl)phenyl]-3,6-dihydro-2H-1,3,4-oxadiazin-2-one (mixture of stereoisomers)]",> 100,> 100,6.24,6.11
"CC1OC(=O)NN=C1c1cc(F)c(N2CCOCC2)c(F)c1 (racemic) [Example 17, (rac)-5-[3,5-Difluoro-4-(morpholin-4-yl)phenyl]-6-methyl-3,6-dihydro-2H-1,3,4-oxadiazin-2-one]",7,17,7.60,7.77
"CC1OC(=O)NN=C1c1ccc(N2CCOCC2)cc1 (racemic) [Example 20, (rac)-6-Methyl-5-[4-(morpholin-4-yl)phenyl]-3,6-dihydro-2H-1,3,4-oxadiazin-2-one]",15,41,6.70,7.00
"CC1OC(=O)NN=C1c1ccc(N2CCOCC2)c(F)c1 (racemic) [Example 119, (rac)-5-(3-Fluoro-4-morpholinophenyl)-6-methyl-3,6-dihydro-2H-1,3,4-oxadiazin-2-one]",5,7,7.44,7.89
"O=C1NN=C(c2ccc(C3=CCC(O)CC3)c(C(F)(F)F)c2)CO1 (racemic) [Example 141, (rac)-5-[4′-Hydroxy-2-(trifluoromethyl)-2′,3′,4′,5′-tetrahydro[1,1′-biphenyl]-4-yl]-3,6-dihydro-2H-1,3,4-oxadiazin-2-one]",2,3,7.89,7.57
"O=C1NN=C(c2ccc(C3=CC4CCC3C4)c(C(F)(F)F)c2)CO1 (racemic) [Example 154, (rac)-5-[4-(Bicyclo[2.2.1]hept-2-en-2-yl)-3-(trifluoromethyl)phenyl]-3,6-dihydro-2H-1,3,4-oxadiazin-2-one]",2,4,7.15,6.92
"Cc1cc(C2=NNC(=O)OC2)ccc1-c1cccnc1 [Example 13, 5-[3-Methyl-4-(pyridin-3-yl)phenyl]-3,6-dihydro-2H-1,3,4-oxadiazin-2-one]",27,82,–,–
"CCc1ccccc1-c1ccc(C2=NNC(=O)O[C@H]2C)cc1C(F)(F)F [Example 186, (6S)-5-[2′-Ethyl-2-(trifluoromethyl)[1,1′-biphenyl]-4-yl]-6-methyl-3,6-dihydro-2H-1,3,4-oxadiazin-2-one]",61,71,–,–
"CCOC1CN(c2ccc(C3=NNC(=O)OC3)cc2C(F)(F)F)C1 [Example 243, 5-[4-(3-Ethoxyazetidin-1-yl)-3-(trifluoromethyl)phenyl]-3,6-dihydro-2H-1,3,4-oxadiazin-2-one]",6,–,7.32,7.00
"O=C1NN=C(c2ccc(NCc3ncccn3)c(C(F)(F)F)c2)CO1 [Example 244, 5-[4-{[(Pyrimidin-2-yl)methyl]amino}-3-(trifluoromethyl)phenyl]-3,6-dihydro-2H-1,3,4-oxadiazin-2-one]",3,–,6.92,6.82
"C[C@@H](CCO)Nc1ccc(C2=NNC(=O)OC2)cc1C(F)(F)F [Example 246, 5-[4-{[(2S)-4-Hydroxybutan-2-yl]amino}-3-(trifluoromethyl)phenyl]-3,6-dihydro-2H-1,3,4-oxadiazin-2-one]",12,–,7.02,6.68
"O=C1NN=C(c2ccc(NCC3(CO)CCC3)c(C(F)(F)F)c2)CO1 [Example 249, 5-[4-({[1-(Hydroxymethyl)cyclobutyl]methyl}amino)-3-(trifluoromethyl)phenyl]-3,6-dihydro-2H-1,3,4-oxadiazin-2-one]",1,–,7.00,6.96
"O=C1NN=C(c2ccc(N3CC[C@H]3CO)c(C(F)(F)F)c2)CO1 [Example 250, 5-{4-[(2S)-2-(Hydroxymethyl)azetidin-1-yl]-3-(trifluoromethyl)phenyl}-3,6-dihydro-2H-1,3,4-oxadiazin-2-one]",2,–,6.92,6.92
"O=C1NN=C(c2ccc(N3CC4CC4C3)c(C(F)(F)F)c2)CO1 (centres unmarked) [Example 252, 5-[4-(3-Azabicyclo[3.1.0]hexan-3-yl)-3-(trifluoromethyl)phenyl]-3,6-dihydro-2H-1,3,4-oxadiazin-2-one]",1,–,6.96,7.07
"N#CCCCNc1ccc(C2=NNC(=O)OC2)cc1C(F)(F)F [Example 254, 4-[4-(2-Oxo-3,6-dihydro-2H-1,3,4-oxadiazin-5-yl)-2-(trifluoromethyl)anilino]butanenitrile]",2,–,7.35,7.51
"O=C1NN=C(c2ccc(N3CC4(C3)CS(=O)(=O)C4)c(C(F)(F)F)c2)CO1 [Example 255, 6-[4-(2-Oxo-3,6-dihydro-2H-1,3,4-oxadiazin-5-yl)-2-(trifluoromethyl)phenyl]-2λ^6-thia-6-azaspiro[3.3]heptane-2,2-dione]",5,–,7.00,7.12
"Nc1ncc(-c2ccc(C3=NNC(=O)OC3)cc2F)cn1 [Example 330, 5-[4-(2-aminopyrimidin-5-yl)-3-fluorophenyl]-3,6-dihydro-2H-1,3,4-oxadiazin-2-one]",> 100,> 100,–,–
